In US8193245B2, “Composition comprising oleic acid and the use thereof” (University-Industry Cooperation Group of Kyung Hee …, priority 2005, dated 2012):

Assays:
Sprague-Dawley rats = test: Acute toxicity test on Sprague-Dawley rats; assay type: in vivo
Description: (§1) The acute toxicity tests on ICR mice (mean body weight 25±5 g) and Sprague-Dawley rats (300±10 g, Jung-Ang Lab Animal Inc.) were performed using the oleic acid of the Example 1. Four group consisting of 10 mice or rats was administrated orally with 100 mg/kg, 250 mg/kg, 500 mg/kg and 1000 mg/kg of test sample or solvents (0.2[…], i.p.) respectively and observed for 2 weeks.
(§2) The acute toxicity tests on ICR mice and Sprague-Dawley rats were performed using the extract of the Example 1. Four group consisting of 10 mice or rats was administrated intraperitoneally with 25 mg/kg, 50 mg/kg, 100 mg/kg and 200 mg/kg of test sample or solvents (0.2[…], i.p.), respectively and observed for 24 hours.

[1] = test system: neuronal cell injury caused by focal cerebral ischemia; test: Neuroprotective activity, middle cerebral artery occlusion (intraluminal suture) with TTC staining; assay type: in vivo, Sprague-Dawley rats
ICR mice = test: Acute toxicity test on ICR mice; assay type: in vivo
Description: as §1, §2

[2] = intraperitoneally 25, 50, 100 and 200 mg/kg, observed for 24 hours
[3] = orally 100, 250, 500 and 1000 mg/kg, observed for 2 weeks

`CCCCCCCC/C=C\CCCCCCCC(=O)O` [oleic acid, Cis-9-octadecenoic acid] was tested, and the “treatment-related effects on mortality, clinical signs, body weight changes and gross findings” value (Sprague-Dawley rats; [2]) was “no treatment-related effects”, the “treatment-related effects on mortality, clinical signs, body weight changes and gross findings” value (Sprague-Dawley rats; [3]) was “no treatment-related effects” and the “staining area with TTC (white) versus control group” value ([1]; 1 mg/kg, 10 mg/kg, 100 mg/kg, 2 h MCA occlusion, 24 hours after reperfusion, FIG. 1) was “smaller staining area with TTC (white) due to little damage of neuronal cell than control group”. For the same molecule, the “protective effect on neuronal cell death compared with control group” value ([1]; group C: 10 mg/kg) was 32.9%, the “protective effect on neuronal cell death compared with control group” value ([1]; group D: 100 mg/kg) was 64.9% and the “treatment-related effects on mortality, clinical signs, body weight changes and gross findings” value (ICR mice; [2]) was “no treatment-related effects”. The “treatment-related effects on mortality, clinical signs, body weight changes and gross findings” value (ICR mice; [3]) was “no treatment-related effects”.
